Test results from patent publication US12071404B2, “Aza (indole)-, benzothiophene-, and benzofuran-3-sulfonamides” (UCB Pharma GmbH, priority 2016, dated 2024).

Experiments:
[1] = molecular target: T1, GPR17 (Homo sapiens, UniProt Q13304); assay: Calcium mobilization functional assay (GPR17 Ca2+ assay); type: cell-based; set-up: host or cells: Flp-In T-REx CHO; conditions: CHO hGPR17 cells, inhibition of 50 nM MDL29,951, Calcium 5 dye, FLIPR; read-out: Ca2+ assay pIC50 (converted)
In short: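 pIC50 values were fitted with a 4-parameter logistic curve. They reflect test-compound inhibition of cytosolic Ca2+ release evoked by 50 nM MDL29,951, tracked as Calcium 5 fluorescence at room temperature. Cells were CHO Flp-In T-REx stably carrying human GPR17, induced with doxycycline 1 μg/mL for 16-20 h.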

[2] = molecular target: T1, GPR17; assay: cAMP accumulation functional assay (HTRF, Schild analysis); type: cell-based; set-up: host or cells: Flp-In T-REx CHO; conditions: CHO hGPR17 cells, Schild analysis vs MDL29,951, 5 μM forskolin, read-out: cAMP assay pA2 (converted)
In short: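 Antagonist affinity (pA2) came from Schild plots of dose ratios, based on MDL29,951 concentration-response curves fitted by 4-parameter logistic. The read-out was HTRF cAMP in 5,000 doxycycline-induced CHO hGPR17 cells per well, with 30 min compound preincubation and 60 min stimulation, at room temperature in pH 7.4 buffer.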

T1 sequence (Q13304 whole entry): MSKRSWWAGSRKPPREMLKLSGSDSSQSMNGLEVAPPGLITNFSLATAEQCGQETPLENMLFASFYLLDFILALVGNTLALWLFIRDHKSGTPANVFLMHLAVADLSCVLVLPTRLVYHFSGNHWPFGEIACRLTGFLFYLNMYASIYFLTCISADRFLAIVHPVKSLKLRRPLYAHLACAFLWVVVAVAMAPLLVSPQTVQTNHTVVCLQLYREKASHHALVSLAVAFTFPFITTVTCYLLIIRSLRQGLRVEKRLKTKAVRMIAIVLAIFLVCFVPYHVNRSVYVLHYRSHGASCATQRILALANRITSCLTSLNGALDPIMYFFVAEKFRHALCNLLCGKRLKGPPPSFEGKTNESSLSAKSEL

Structure (SMILES) | IC50 [1] [nM] | Kb [2] [nM]
O=S(=O)(Nc1ccc(S(F)(F)(F)(F)F)cc1F)c1c[nH]c2cc(Cl)ccc12 [Compound I-215, 6-chloro-N-[2-fluoro-4-(pentafluoro-lambda-6-sulfanyl)phenyl]-1H-indole-3-sulfonamide] | 3.16 to 31.6 | 3.16 to 31.6
COc1nc(NS(=O)(=O)c2c[nH]c3nc(Cl)ccc23)c(F)cc1Cl [Compound I-336, 6-chloro-N-(5-chloro-3-fluoro-6-methoxypyridin-2-yl)-1H-pyrrolo[2,3-b]pyridine-3-sulfonamide] | < 3.16 | 3.16 to 31.6
COCCOc1cc(F)c(NS(=O)(=O)c2c[nH]c3cc(Cl)ccc23)nc1F [Compound I-365, 6-chloro-N-[3,6-difluoro-5-(2-methoxyethoxy)pyridin-2-yl]-1H-indole-3-sulfonamide] | 3.16 to 31.6 | 3.16 to 31.6
O=S(=O)(Nc1cc(F)c(Cl)cc1F)c1c[nH]c2c(F)c(Cl)ccc12 [Compound I-242, 6-chloro-N-(4-chloro-2,5-difluorophenyl)-7-fluoro-1H-indole-3-sulfonamide] | 3.16 to 31.6 | < 3.16
Cc1cc(F)c(NS(=O)(=O)c2c[nH]c3cc(Cl)ccc23)nc1F [Compound I-348, 6-chloro-N-(3,6-difluoro-5-methylpyridin-2-yl)-1H-indole-3-sulfonamide] | < 3.16 | 3.16 to 31.6
O=S(=O)(Nc1cc(F)c(Cl)cc1F)c1c[nH]c2cc(Cl)c(F)cc12 [Compound I-263, 6-chloro-N-(4-chloro-2,5-difluorophenyl)-5-fluoro-1H-indole-3-sulfonamide] | 3.16 to 31.6 | 3.16 to 31.6
O=S(=O)(Nc1ccc2nsnc2c1)c1c[nH]c2cc(Cl)ccc12 [Compound I-147, N-(2,1,3-benzothiadiazol-5-yl)-6-chloro-1H-indole-3-sulfonamide] | 3.16 to 31.6 | 3.16 to 31.6
O=S(=O)(Nc1cc2nsnc2cc1F)c1c[nH]c2cc(Cl)ccc12 [Compound I-162, 6-chloro-N-(6-fluoro-2,1,3-benzothiadiazol-5-yl)-1H-indole-3-sulfonamide] | < 3.16 | < 3.16
O=S(=O)(Nc1cc(F)c(Cl)cc1F)c1csc2cc(Cl)ccc12 [Compound I-312, 6-chloro-N-(4-chloro-2,5-difluorophenyl)-1-benzothiophene-3-sulfonamide] | 3.16 to 31.6 | 3.16 to 31.6
C#Cc1ccc(NS(=O)(=O)c2c[nH]c3cc(OC)ccc23)c(F)c1 [Compound I-274, N-(4-ethynyl-2-fluorophenyl)-6-methoxy-1H-indole-3-sulfonamide] | 3.16 to 31.6 | 3.16 to 31.6
O=S(=O)(Nc1cccc2nsnc12)c1c[nH]c2nc(Cl)ccc12 [Compound I-93, N-(2,1,3-benzothiadiazol-4-yl)-6-chloro-1H-pyrrolo[2,3-b]pyridine-3-sulfonamide] | 3.16 to 31.6 | 3.16 to 31.6
O=S(=O)(Nc1cc(F)c(F)cc1F)c1c[nH]c2c1ccc1ccccc12 [Compound I-52, N-(2,4,5-trifluorophenyl)-1H-benzo[g]indole-3-sulfonamide] | > 31.6 | 3.16 to 31.6
CS(=O)(=O)c1ccc2c(S(=O)(=O)Nc3ccc(C#N)cc3)c[nH]c2c1 [Compound I-14, N-(4-cyanophenyl)-6-(methylsulfonyl)-1H-indole-3-sulfonamide] | 3.16 to 31.6 | 3.16 to 31.6
N#Cc1ccc(NS(=O)(=O)c2c[nH]c3nc(Br)ccc23)cc1 [Compound I-80, 6-bromo-N-(4-cyanophenyl)-1H-pyrrolo[2,3-b]pyridine-3-sulfonamide] | < 3.16 | 3.16 to 31.6
O=S(=O)(Nc1cc2nsnc2cc1F)c1c[nH]c2cc(Br)ccc12 [Compound I-193, 6-bromo-N-(6-fluoro-2,1,3-benzothiadiazol-5-yl)-1H-indole-3-sulfonamide] | < 3.16 | < 3.16

Now from value to molecule:

IC50 [1] [nM] | Kb [2] [nM] | Structure (SMILES)
< 3.16 | 3.16 to 31.6 | N#Cc1ccc(NS(=O)(=O)c2c[nH]c3cc(Cl)c(F)cc23)c(F)c1 [Compound I-258, 6-chloro-N-(4-cyano-2-fluorophenyl)-5-fluoro-1H-indole-3-sulfonamide]
> 31.6 | > 31.6 | O=S(=O)(Nc1ccc(Cl)cc1)c1c[nH]c2cc(Cl)ccc12 [Compound I-24, 6-chloro-N-(4-chlorophenyl)-1H-indole-3-sulfonamide]
3.16 to 31.6 | > 31.6 | N#Cc1ccc(NS(=O)(=O)c2c[nH]c3cc(F)ccc23)c(F)c1 [Compound I-113, N-(4-cyano-2-fluorophenyl)-6-fluoro-1H-indole-3-sulfonamide]
3.16 to 31.6 | 3.16 to 31.6 | O=c1[nH]c2cccc(NS(=O)(=O)c3c[nH]c4cc(Cl)ccc34)c2o1 [Compound I-301, 6-chloro-N-(2-oxo-2,3-dihydro-1,3-benzoxazol-7-yl)-1H-indole-3-sulfonamide]
3.16 to 31.6 | 3.16 to 31.6 | COc1nc(NS(=O)(=O)c2c[nH]c3cc(Cl)ccc23)c(F)cc1F [Compound I-345, 6-chloro-N-(3,5-difluoro-6-methoxypyridin-2-yl)-1H-indole-3-sulfonamide]
< 3.16 | < 3.16 | O=S(=O)(Nc1cc(F)c(Cl)cc1F)c1c[nH]c2cc3c(cc12)OCO3 [Compound I-271, N-(4-chloro-2,5-difluorophenyl)-5H-[1,3]dioxolo[4,5-f]indole-7-sulfonamide]
3.16 to 31.6 | < 3.16 | O=S(=O)(Nc1cccc2nsnc12)c1c[nH]c2c1ccc1cccnc12 [Compound I-73, N-(2,1,3-benzothiadiazol-4-yl)-1H-pyrrolo[3,2-h]quinoline-3-sulfonamide]
3.16 to 31.6 | 3.16 to 31.6 | COc1cc(C#N)c(F)cc1NS(=O)(=O)c1c[nH]c2nc(Cl)ccc12 [Compound I-292, 6-chloro-N-(4-cyano-5-fluoro-2-methoxyphenyl)-1H-pyrrolo[2,3-b]pyridine-3-sulfonamide]
3.16 to 31.6 | < 3.16 | CCO/C=C/c1cc(F)c(NS(=O)(=O)c2c[nH]c3cc(Cl)ccc23)nc1F [Compound I-332, 6-chloro-N-{5-[(E)-2-ethoxyethenyl]-3,6-difluoropyridin-2-yl}-1H-indole-3-sulfonamide]
3.16 to 31.6 | 3.16 to 31.6 | N#Cc1ccc(NS(=O)(=O)c2csc3cc(Cl)ccc23)cc1 [Compound I-311, 6-chloro-N-(4-cyanophenyl)-1-benzothiophene-3-sulfonamide]
3.16 to 31.6 | < 3.16 | O=S(=O)(Nc1ccc(Cl)cc1F)c1c[nH]c2cc(Cl)ccc12 [Compound I-141, 6-chloro-N-(4-chloro-2-fluorophenyl)-1H-indole-3-sulfonamide]
> 31.6 | 3.16 to 31.6 | O=S(=O)(Nc1cc(Cl)ccc1F)c1c[nH]c2cc(Cl)ccc12 [Compound I-4, 6-chloro-N-(5-chloro-2-fluorophenyl)-1H-indole-3-sulfonamide]
< 3.16 | < 3.16 | COC/C=C/c1cc(F)c(NS(=O)(=O)c2c[nH]c3cc(Br)ccc23)nc1F [Compound I-325, 6-bromo-N-{3,6-difluoro-5-[(1E)-3-methoxyprop-1-en-1-yl]pyridin-2-yl}-1H-indole-3-sulfonamide]
< 3.16 | < 3.16 | COc1cc(CC#N)c(F)nc1NS(=O)(=O)c1c[nH]c2cc(Cl)ccc12 [Compound I-350, 6-chloro-N-[5-(cyanomethyl)-6-fluoro-3-methoxypyridin-2-yl]-1H-indole-3-sulfonamide]
